The text below walks through data of US10369123B2, “Perk activator for the treatment of neurodegenerative diseases” (DEUTSCHES ZENTRUM FÜR NEURODEGENERATIVE ERKRANKUNGEN E.V. …, priority 2014, dated 2019).

SMILES strings stand for the structures.

Common to all, as to assay type: cell-based, human
Series [1] concerns EIF2AK3, EIF2A and ATF4 mRNA. Kind of series: Quantitative PCR of UPR genes in differentiated LUHMES neurons. The conditions noted are these: 48 h; for ATF4 mRNA expression: thapsigargin 30 nM or annonacin 25 nM. Here is the method:
(§1) Nunc™ Nunclon™ Delta 6-well (for protein and mRNA) or 48-well (for cell assays) plates (Thermo Fisher Scientific, Waltham, Mass., USA) were coated with 100 μg/ml poly-L-lysine (Sigma-Aldrich, St. Louis, Mo., USA) and 5 μg/ml fibronectin (Sigma-Aldrich). LUHMES (Lund Human Mesencephalic) cells, derived from human embryonic ventral mesencephalic cells by conditional immortalization (Tet-off v-myc over-expression) were seeded out in a concentration of 130,000 cells/cm^2 to achieve a confluence of 50%. They were then differentiated for 8 days in a medium of DMEM/F12 (Sigma-Aldrich), 1 μg/ml tetracycline, […] and 490 μg/ml dbcAMP into post-mitotic neurons with a dopaminergic phenotype (Lotharius et al. 2005).
(§2) For all experiments with annonacin, the medium was replaced during the intoxication period with new medium containing glucose levels reduced to 250 μM, i.e. the physiological concentration in the human brain.
(§3) RNA from human tissue samples was extracted by grinding the tissue in liquid nitrogen to a powder and then dissolving it in the RA1 buffer supplied as part of the NucleoSpin® RNA (Macherey Nagel) RNA extraction kit+1% (v/v) 2-mercaptoethanol (Sigma-Aldrich). RNA from cells was extracted by scraping the cells from the culture plate with RA1 buffer+1% (v/v) 2-mercaptoethanol. The remaining extraction procedure was according to the manufacturer's instructions for the NucleoSpin® RNA kit. RNA concentrations were determined using the NanoDrop 2000c Spectrophotometer. The RNA was then transcribed into cDNA with the iScript™ cDNA Synthesis Kit (BioRad) using the manufacturer's instructions. Real-Time PCR was performed on the Applied Biosystems® StepOnePlus™ (Life Technologies) system using TagMan® Universal Master Mix II and TaqMan® primers against total MAPT, MAPT 3R, MAPT 4R, EIF2A, EI2AK3 and ATF4. POL2A and PSCM1 served as reference targets as they were determined to be the most stably expressed across experimental conditions. The results were analyzed using the StepOne Plus software (Life Technologies) and Qbase software (Biogazelle) and were then graphically and statistically analyzed with Prism 6 (GraphPad Software). Absolute quantification was performed by creating a standard curve with plasmids containing either the 2N3R or the 2N4R spliced variant of MAPT (see Table 2). The absolute quantity was computed by deriving the relationship between CT values and absolute quantity with the StepOne Plus software.

Series [2] concerns unfolded protein response (PERK, EIF2A). In words: Western blot of UPR proteins in differentiated LUHMES neurons. The note with it: 48 h; for phosphorylated EIF2A (pEIF2A) protein / phosphorylated PERK (pPERK) protein: thapsigargin 30 nM or annonacin 25 nM. How it is done: as §1, §2
(§4) Protein was extracted by scraping the cells from the culture plate with Mammalian Protein Extraction Reagent (M-PER, Thermo Fisher Scientific) and 1× cOmplete Protease Inhibitor Cocktail Tablets (Hoffmann-La Roche, Basel, Switzerland) and 1× PhosSTOP Phosphatase Inhibitor Cocktail Tablets (Hoffmann-La Roche). For pNRF2 blots, cells were extracted with 2% SDS tris-buffer instead of M-PER in order to obtain whole cell extracts and not to lose the nuclear fraction. The protein solution was frozen at −80° C., immediately after retrieval, for a minimum of two hours. The solution was then thawed on ice, vortexed, centrifuged at 5000 g for 15 min at 4° C. and the supernatant retrieved. Protein concentrations were determined using the BCA kit (Thermo Fisher Scientific) by heating the samples at 60° C. for 30 min and measuring the absorption on the NanoDrop 2000c Spectrophotometer (Thermo Fisher Scientific).
200 μg of protein were diluted to equal concentrations with M-PER lysis buffer (Thermo Fisher Scientific) up to 270 μl. The PERK D11A8 antibody (Cell Signaling Technology, Beverly, Mass., USA) was added to a concentration of 1:100 and allowed to bind the antigen for one hour in a rotating 1.5 ml microcentrifuge tube. Then 30 μl of protein sepharose A beads (Sigma-Aldrich, 3 mg per ml) were added to each tube and left rotating overnight at 4° C. The tubes were then centrifuged at 10,000 g for 3 minutes and the supernatant was discarded. The beads were washed in M-PER three times. Each time the beads were centrifuged and the supernatant was extracted with a Hamilton Syringe (Hamilton, Bonaduz, Switzerland) and discarded. The beads were then mixed with 15 μl 1× Roti®-Load 1 (Carl Roth) and heated at 95° C. for 5 minutes. After another centrifugation step of 10,000 g for 1 minute the supernatant was loaded onto a gel with the Hamilton syringe and then blotted as described below.
(§5) 20 μg of protein (unless indicated otherwise) were adjusted to equal concentrations between samples by dilution with M-PER and subsequently heated at 95° C. for 5 minutes with Roti®-Load 1 (Carl Roth). SDS-PAGE was performed using Any kD™ Mini-PROTEAN® TGX™ Gels (BioRad, Berkeley, Calif., USA) in a tris-glycine running buffer. The protein was blotted onto PVDF membrane (BioRad) at 70 V for 65 minutes on ice. The membrane was blocked with 1× Roti®-Block solution (Carl Roth) for 1 h and then incubated at 4° C. overnight under gentle shaking with the primary antibody (see Table 5) in TBS with 5% BSA (Cell Signaling Technology) and 0.05% TWEEN (Sigma-Aldrich).
The membranes were then washed and incubated with the species specific HRP-bound secondary antibody (Vector Laboratories, Burlingame, Calif., USA) at 1:2500 in 1× Roti®-Block solution for 2 h, followed by further washing and exposure to Clarity Western ECL Substrate (BioRad) or, in the case of MC1 and 4R-tau, to Amersham™ ECL™ Prime (GE Healthcare). […]

For series [3], the system named is LUHMES neurons. Kind of series: Morphological inspection and counts of viable cells. The note with it: annonacin 25 nM, 48 h. How it is done: as §1, §2
The protection by the PERK activator against annonacin and 4R-tau protein overexpression was also evident on morphological inspection of the cells. […] Lentiviral 4R-tau overexpression had similar effects. […] Cell counts of viable cells with intact nuclear and somatic morphology were counted in randomly selected 1300×1000 sized areas in 4 biological replicates each, confirming the protective effects of Pa.

For series [4], the system named is 3R/4R MAPT mRNA, splicing factor SRSF2. Kind of series: Quantitative PCR of MAPT isoforms and splicing factors, annonacin model. The note with it: annonacin. Here is the method: as §1, §2, §3
Series [5] deals with 4R-tau and 3R-tau isoforms. Kind of series: Western blot of 3R-/4R-tau isoforms, annonacin model. The note with it: annonacin 25 nM, 48 h. Here is the method:
as §1, with “2005). […]” for “2005).”
Protein was extracted by scraping the cells from the culture plate with Mammalian Protein Extraction Reagent (M-PER, Thermo Fisher Scientific) and 1× cOmplete Protease Inhibitor Cocktail Tablets (Hoffmann-La Roche, Basel, Switzerland) and 1× PhosSTOP Phosphatase Inhibitor Cocktail Tablets (Hoffmann-La Roche). […] Protein concentrations were determined using the BCA kit (Thermo Fisher Scientific) by heating the samples at 60° C. for 30 min and measuring the absorption on the NanoDrop 2000c Spectrophotometer (Thermo Fisher Scientific). […]
(In general: A western blot detects proteins with antibodies after separation by electrophoresis.)

For series [6], the system named is tau. Kind of series: Western blot of tau conformation and phosphorylation, annonacin model. The note with it: annonacin 25 nM, 48 h. How it is done:
as §1, §2, §4, §5
The membranes were then washed and incubated with the species specific HRP-bound secondary antibody (Vector Laboratories, Burlingame, Calif., USA) at 1:2500 in 1× Roti®-Block solution for 2 h, followed by further washing and exposure to Clarity Western ECL Substrate (BioRad) or, in the case of MC1 and 4R-tau, to Amersham™ ECL™ Prime (GE Healthcare). Chemiluminescence was detected with the Gel Doc™ XR System (BioRad) and analyzed with Image Lab™ software (BioRad), followed by graphical and statistical analysis with Prism 6 (GraphPad Software).

Series [7] deals with LUHMES neurons. Kind of series: MTT assay, annonacin-treated LUHMES neurons. The note with it: annonacin alone, different concentrations, 48 h. How it is done: as §1, §2
Thiazolyl Blue Tetrazolium […] (MTT) (Sigma Aldrich) was dissolved in sterile PBS to a concentration of 5 mg/ml. This stock solution was added to the cells in culture medium to achieve a final concentration of 0.5 mg/ml. The 48-well culture plate was then incubated at 37° C. for 1 h, the medium removed completely and frozen at −80° C. for 1 h. The plate was then thawed, 300 μl DMSO (AppliChem, Darmstadt, Germany) was added per well and the plate was shaken to ensure complete dissolution of the violet crystals. 100 μl from each well were transferred to a new 96-well plate and the absorbance was read with the FLUOstar Omega (BMG Labtech) platereader at a wavelength of 590 nm (reference wave length 630 nm). The data was analyzed using the MARS Data Analysis Software (BMG Labtech) and Prism 6.
(In general: Tetrazolium assays rely on reduction of a dye to a coloured formazan, in cell work by metabolically active cells.)

The test system of series [8] is LUHMES neurons. In words: ATP assay, annonacin-treated LUHMES neurons. The note with it: annonacin alone, different concentrations, 48 h. Here is the method: as §1, §2
ATP assays were conducted using the ViaLight™ plus kit by Lonza according to the manufacturer's instructions. Luminescence was read with the FLUOstar Omega (BMG Labtech) platereader. The data was analyzed using the MARS Data Analysis Software (BMG Labtech) and Prism 6.

As to `C/C=C(/C)C(=O)O[C@H]1C(C)=C2[C@H]([C@@H]1OC(=O)CCCCCCC)[C@@](C)(OC(C)=O)C[C@H](OC(=O)CCC)[C@@]1(O)[C@H]2OC(=O)[C@@]1(C)O` [thapsigargin], in series [1] (thapsigargin 30 nM), the “EIF2AK3 mRNA expression” value is reported as “increased expression”. Further, in series [1], the “ATF4 mRNA expression” value is on record as “increased expression”. Besides, the pPERK/PERK ratio entry in series [2] (thapsigargin 30 nM) was “significantly increased”. In series [2] (vs untreated), the “phosphorylated EIF2A (pEIF2A) protein” value is “increased phosphorylation” and the “phosphorylated PERK (pPERK) protein” value is “increased phosphorylation”.
Turning to `CCCCCCCCCCCC[C@@H](O)[C@H]1CC[C@H]([C@H](O)CCCC[C@H](O)CCCCC[C@@H](O)CC2=CC(C)OC2=O)O1` (stereo partly shown) [annonacin], the “EIF2A mRNA expression” value in series [1] (annonacin 25 nM) is on record as “upregulated”. In addition, the “ATF4 mRNA expression” value in series [1] is listed as “upregulated”. Further, in series [3], the “condensation of DNA to chromatin clumps” value was “led to the condensation of DNA to chromatin clumps” and the “density of the dendritic network” value is reported as “reduced”. In addition, in series [2] (annonacin 25 nM, vs untreated), the “total EIF2A protein” value is recorded as “reduced” and the “total PERK protein” value was “reduced”. Further, in series [2] (vs untreated), the “phosphorylated EIF2A (pEIF2A) protein” value is reported as “reduced” and the “phosphorylated PERK (pPERK) protein” value is “increased”. Also, in series [4], the “splicing factor SRSF2 mRNA” value is “significantly increase”. Further, the “4R-tau mRNA level” value in series [4] (48 h) is “increase”. Further, the 4R-tau protein level result in series [5] was “increase”. In addition, in series [6], the “total tau protein (HT7)” value was “not altered”. In series [6] (vs control), the “AD2 (p-Ser-396 and 404) tau phosphorylation” value was “significantly increased”; the “CP13 (p-Ser-202) tau phosphorylation” value was “significantly increased”; the “MC1 pathological tau conformation” value was “increased”. For the same molecule, the MTT signal entry in series [7] is recorded as “concentration-dependent decline”. In addition, the ATP concentration result in series [8] is given as “concentration-dependent decline”.
